From US10246420B2, “Pyrazole derivatives” (BAYER CROPSCIENCE AKTIENGESELLSCHAFT, priority 2014, dated 2019)
Where two headings read alike, the source gives them in different places.

Assays:
[1] = tested on: Sphaerotheca fuliginea; experiment: Biological Example C3 (comparative): in vivo preventive test on Sphaerotheca fuliginea (cucumbers); details: rate of application 50 ppm, evaluated 7 days after inoculation
Description: (§1) To produce a suitable preparation of active compound, 1 part by weight of active compound is mixed with the stated amounts of solvent and emulsifier, and the concentrate is diluted with water to the desired concentration.
(§2) To test for preventive activity, young plants are sprayed with the preparation of active compound at the stated rate of application. After the spray coating has dried on, the plants are inoculated with an aqueous spore suspension of Sphaerotheca fuliginea. The plants are then placed in a greenhouse at approximately 23° C. and a relative atmospheric humidity of approximately 70%.
(§3) The test is evaluated 7 days after the inoculation. 0% means an efficacy which corresponds to that of the untreated control, while an efficacy of 100% means that no disease is observed.

[2] = tested on: Phakopsora pachyrhizi; experiment: Biological Example C2 (comparative): in vivo preventive test on Phakopsora pachyrhizi (soybeans); details: rate of application 250 ppm, evaluated 7 days after inoculation
Description: as §1
To test for preventive activity, young plants are sprayed with the preparation of active compound at the stated rate of application. After the spray coating has dried on, the plants are inoculated with an aqueous spore suspension of the causal agent of soybean rust (Phakopsora pachyrhizi) and stay for 24 h without light in an incubation cabinet at approximately 24° C. and a relative atmospheric humidity of 95%. The plants remain in the incubation cabinet at approximately 24° C. and a relative atmospheric humidity of approximately 80% and a day/night interval of 12 h.
as §3

[3] = Log P by HPLC on reversed phase columns (EEC directive 79/831 Annex V.A8); type: physicochemical
Description: Measurement of Log P values was performed according to EEC directive 79/831 Annex V.A8 by HPLC (High Performance Liquid Chromatography) on reversed phase columns with the following methods:
[^a] Log P value is determined by measurement of LC-UV, in an acidic range, with 0.1% formic acid in water and acetonitrile as eluent (linear gradient from 10% acetonitrile to 95% acetonitrile).
[^b] Log P value is determined by measurement of LC-UV, in a neutral range, with 0.001 molar ammonium acetate solution in water and acetonitrile as eluent (linear gradient from 10% acetonitrile to 95% acetonitrile).
[^c] Log P value is determined by measurement of LC-UV, in an acidic range, with 0.1% phosphoric acid and acetonitrile as eluent (linear gradient from 10% acetonitrile to 95% acetonitrile).
Calibration was done with straight-chain alkan-2-ones (with 3 to 16 carbon atoms) with known Log P values (measurement of Log P values using retention times with linear interpolation between successive alkanones). Lambda-max-values were determined using UV-spectra from 200 nm to 400 nm and the peak values of the chromatographic signals.

[4] = tested on: Alternaria solani; experiment: Biological Example C1 (comparative): in vivo preventive test on Alternaria solani (tomatoes); details: rate of application 50 ppm, evaluated 3 days after inoculation
Description: as §1
as §2, with “Alternaria solani.” for “Sphaerotheca fuliginea.”, “an incubation cabinet” for “a greenhouse”, “20°” for “23°”, “100%.” for “approximately 70%.”
The test is evaluated 3 days after the inoculation. 0% means an efficacy which corresponds to that of the untreated control while an efficacy of 100% means that no disease is observed.

[5] = LC-UV, acidic range, 0.1% formic acid in water and acetonitrile as eluent, read-out: LogP [a]

Structure (SMILES): C#CCOc1cc(F)cc(F)c1Nc1c(-c2ccc(F)cc2Cl)c(C)nn1C [Example I-01]
- Efficacy in % [1]: 98%
- Efficacy in % [2]: 94%
- chromatographic logP ([3]; reversed phase HPLC columns, LC-UV, acidic range, 0.1% formic acid in water and acetonitrile as eluent, read-out: LogP [a]): 3.26
- chromatographic logP ([3]; reversed phase HPLC columns, LC-UV, acidic range, 0.1% phosphoric acid and acetonitrile as eluent, read-out: LogP [c]): 3.1
- Efficacy in % [4]: 96%

Structure (SMILES): C#CCOc1cccc(Cl)c1Nc1c(-c2ccc(F)cc2F)c(C)nn1C [Example I-67]
- LogP [a] [3]: 3.26^[a]

Structure (SMILES): C=CCOc1cc(F)c(N=C=S)c(F)c1 [Z-ii-01]
- LogP [a] [3]: 4.54^[a]

Structure (SMILES): C#CCOc1cc(F)c(N=C=S)c(F)c1 [Z-ii-02]
- LogP [a] [3]: 3.86^[a]

Structure (SMILES): C#CCOc1cc(F)cc(F)c1N=C=S [Z-ii-03, 3,5-difluoro-2-isothiocyanatophenyl prop-2-yn-1-yl ether]
- chromatographic logP [3, 5]: 3.68
- chromatographic logP ([3]; pH 2.3, read-out: log P (pH 2.3)): 3.72

Structure (SMILES): C=CCOc1ccc(N=C=S)cc1 [Z-ii-05]
- LogP [a] [3]: 4.06
- LogP [b] [3]: 4.09

Structure (SMILES): C=CCOc1ccc(N=C=S)cc1F [Z-ii-06]
- LogP [a] [3]: 4.06^[a]

Structure (SMILES): C=CCOc1ccc(F)c(N=C=S)c1 [Z-ii-07]
- LogP [a] [3]: 4.30^[a]

Structure (SMILES): C#CCOc1ccc(F)c(N=C=S)c1 [Z-ii-08]
- LogP [a] [3]: 3.62^[a]

Structure (SMILES): C#CCOc1cc(F)c(N=C=S)cc1F [Z-ii-09]
- LogP [a] [3]: 3.64^[a]

Structure (SMILES): C=CCOc1cc(F)c(N=C=S)cc1F [Z-ii-10]
- LogP [a] [3]: 4.24^[a]

Structure (SMILES): C#CCOc1ccc(N=C=S)cc1F [Z-ii-11]
- LogP [a] [3]: 3.47^[a]

Structure (SMILES): C#CCOc1ccc(N=C=S)c(Cl)c1 [Z-ii-12]
- LogP [a] [3]: 3.99
- LogP [b] [3]: 3.96

Structure (SMILES): C=CCOc1ccc(N=C=S)c(Cl)c1 [Z-ii-13]
- LogP [a] [3]: 4.72^[a]; 4.72^[b]
- LogP [b] [3]: 4.72^[a]; 4.72^[b]

Structure (SMILES): C#CCOc1cccc(Cl)c1N=C=S [Z-ii-14]
- LogP [a] [3]: 3.86^[a]

Structure (SMILES): C=CCOc1ccc(F)cc1N=C=S [Z-ii-16]
- LogP [a] [3]: 4.24^[a]

Structure (SMILES): C#CCOc1ccc(F)cc1N=C=S [Z-ii-17]
- LogP [a] [3]: 3.62^[a]

Structure (SMILES): C#CCOc1cc(C)ccc1N=C=S [Z-ii-18]
- LogP [a] [3]: 3.82^[a]

Structure (SMILES): C=CCOc1ccc(C#N)cc1N=C=S [Z-ii-19]
- LogP [a] [3]: 3.71^[a]

Structure (SMILES): C#CCOc1ccc(C#N)cc1N=C=S [Z-ii-20]
- LogP [a] [3]: 3.13^[a]

Structure (SMILES): C=CCOc1ccc(CC(C)=O)c(F)c1 [Z-iv-01, 1-[4-(allyloxy)-2-fluorophenyl]acetone]
- chromatographic logP [3, 5]: 2.6

Structure (SMILES): COc1ccc(CC(C)=O)c(F)c1 [Z-iv-02, 1-(2-fluoro-4-methoxyphenyl)acetone]
- chromatographic logP [3, 5]: 1.95

Structure (SMILES): C#CCOc1cc(F)cc(F)c1NC(=S)C(C(C)=O)c1ccc(F)cc1Cl (stereo not shown) [Z-ix-03]
- LogP [a] [3]: 3.65^[a]

Structure (SMILES): CCCOc1cc(F)cc(F)c1Nc1c(-c2ccc(F)cc2Cl)c(C)nn1C [drawing 18, reference compound]
- Efficacy in % [4]: 40%

Structure (SMILES): CCCOc1cc(F)cc(F)c1Nc1c(-c2ccc(F)cc2Cl)c(C)nn1C [drawing 20, reference compound]
- Efficacy in % [2]: 53%

Structure (SMILES): CCCOc1cc(F)cc(F)c1Nc1c(-c2ccc(F)cc2Cl)c(C)nn1C [drawing 22, reference compound]
- Efficacy in % [1]: 10%
